Values joined by “and” are separate entries in the source; they are usually repeats but may differ in a detail not shown here. Equal values may be shown once.
What was measured:
[1] = Cytotoxicity assay, positive control (cell line not stated); type: cell-based; settings: human
[2] = system: two respiratory isolates (carrying NDM-5 and TEM-OSBL) from Russia in 2019; settings: both isolates, reported to be resistant to cefiderocol; cited from earlier work
E. coli = assay: MIC by broth microdilution (CLSI) against E. coli; type: cell-based, Escherichia coli
Method: (§1) MIC tests were performed by broth microdilution in-line with CLSI susceptibility testing standards ([20], [21]) either in-house or at IHMA (Europe and USA) or JMI Laboratories using cation-adjusted Mueller Hinton Broth.

K. pneumoniae = assay: MIC by broth microdilution (CLSI) against K. pneumoniae; type: cell-based, Klebsiella pneumoniae
Method: as §1

[3] = 15 clinical MDR NDM isolates (NDM-1, NDM-4, NDM-5) from India (2018)
[4] = 100 MDR clinical isolates incl. ESBL and CRE

In the case of `CSc1ccc2c(c1)N(CCC1CCCCN1C)c1ccccc1S2` (centres unmarked) [Thioridazine], the IC50 at 24 h [1] is reported as 22.1 µM and 8.19 µg/mL.

In the case of `CC(C)(O/N=C(\C(=O)N[C@@H]1C(=O)N2C(C(=O)[O-])=C(C[N+]3(CCNC(=O)c4ccc(O)c(O)c4Cl)CCCC3)CS[C@H]12)c1csc(N)n1)C(=O)O` [cefiderocol], the MIC [2] is given as over 64 µg/mL.

In the case of Colistin [reference compound], the “MIC Range E. coli (NDM)” value (E. coli; [3]) is reported as 0.5 to 1 µg/mL, the “MIC50 E. coli” value (E. coli; [4]) is reported as 0.5 µg/mL and the “MIC90 E. coli” value (E. coli; [4]) is reported as 0.5 µg/mL. The “MIC range E. coli” value (E. coli; [4]) was 0.25 to 8 µg/mL, the MIC (E. coli; E. coli NCTC 13441 (UPEC, MDR, CTX-M-15 ESBL)) was 0.16 µM and 0.18 µg/mL and the “MIC Range K. pneumoniae (NDM)” value (K. pneumoniae; [3]) was 1 to 32 µg/mL. The “MIC50 K. pneumoniae” value (K. pneumoniae; [4]) was 0.5 µg/mL, the “MIC90 K. pneumoniae” value (K. pneumoniae; [4]) was 16 µg/mL and the MIC (K. pneumoniae; K. pneumoniae NCTC 13438 (MDR, Class A KPC)) was 1.56 µM and 1.80 µg/mL.

From article PMC10777851, “SMT-738: a novel small-molecule inhibitor of bacterial lipoprotein transport targeting Enterobacteriaceae” (Antimicrobial Agents and Chemotherapy, 2023)
